According to patent US20100305124A1, “Acylated Aminopyridine and Aminopyridazine Insecticides” (BAYER CROPSCIENCE AG, priority 2009, published 2010):

What follows are molecules tested on green peach aphid (Myzus persicae) (assay: Myzus test (MYZUPE), sprayed aubergine plants). Conditions: application rate of 500 ppm, spray on aubergine plants, read-out: effect in % (aphids killed).
Type: in vivo
Description: Solvent: 3 parts by weight of dimethylformamide Emulsifier: 1 part by weight of polyoxyethylenealkyl phenyl ether
An appropriate preparation of active ingredient is prepared by mixing 1 part by weight of active ingredient with the stated amount of solvent and emulsifier and diluting the concentrate with water to the desired concentration.
Aubergine plants (Solanum melongena) infested by all stages of the green peach aphid (Myzus persicae) are sprayed with a preparation of active ingredient at the desired concentration.
After the desired time, the effect in % is determined; here, 100% means that all of the aphids have been killed. Conversely, 0% means that no aphids have been killed.

SMILES | pest or weed control at 500 ppm [%]
CCN(C(=O)c1ccc(Oc2ccc(Cl)cc2)nc1)c1cccnc1 [I-161] | ≥ 80
CCN(C(=O)c1ccc(Oc2ccc([N+](=O)[O-])cc2)nc1)c1cccnc1 [I-163] | ≥ 80
N#Cc1ccc(Oc2ccc(C(=O)Nc3cccnc3)cn2)cc1 [I-164] | ≥ 80
CCN(C(=O)c1ccc(Oc2ccc(C#N)cc2)nc1)c1cccnc1 [I-165] | ≥ 80
Cc1ccnc(Sc2ncc(C(=O)N(C)c3cccnc3)cc2Cl)n1 [I-166] | ≥ 80
Cc1nc(Sc2ncc(C(=O)N(C)c3cccnc3)cc2Cl)nc(C)c1C [I-167] | ≥ 80
COc1cc(OC)nc(Oc2ccc(C(=O)Nc3cccnc3)cn2)n1 [I-168] | ≥ 80
CCN(C(=O)c1ccc(Oc2nc(OC)cc(OC)n2)nc1)c1cccnc1 [I-169] | ≥ 80
COc1cc(OC)nc(Oc2ccc(C(=O)Nc3cccnc3)cc2)n1 [I-170] | ≥ 80
COc1cc(OC)nc(Oc2ccc(C(=O)N(C)c3cccnc3)cc2)n1 [I-171] | ≥ 80
CCN(C(=O)c1ccc(Oc2nc(OC)cc(OC)n2)cc1)c1cccnc1 [I-172] | ≥ 80
COc1cc(OC)nc(Sc2ccc(C(=O)Nc3cccnc3)cn2)n1 [I-173] | ≥ 80
COc1cc(OC)nc(Sc2ccc(C(=O)N(C)c3cccnc3)cn2)n1 [I-174] | ≥ 80
CCN(C(=O)c1ccc(Sc2nc(OC)cc(OC)n2)nc1)c1cccnc1 [I-175] | ≥ 80
COc1cc(OC)nc(Sc2ccc(C(=O)Nc3cccnc3)cc2)n1 [I-176] | ≥ 80
COc1cc(OC)nc(Sc2ccc(C(=O)N(C)c3cccnc3)cc2)n1 [I-177] | ≥ 80
CCN(C(=O)c1ccc(Sc2nc(OC)cc(OC)n2)cc1)c1cccnc1 [I-178] | ≥ 80
Cc1cc(C)nc(Sc2ccc(C(=O)Nc3cccnc3)cc2)n1 [I-179] | ≥ 80
CCN(C(=O)c1ccc(Sc2nc(C)cc(C)n2)cc1)c1cccnc1 [I-180] | ≥ 80

SMILES | pest or weed control at 500 ppm [%]
Cc1cc(C)nc(Oc2ccc(C(=O)Nc3cccnc3)cc2)n1 [I-181] | ≥ 80
Cc1cc(C)nc(Oc2ccc(C(=O)N(C)c3cccnc3)cc2)n1 [I-182] | ≥ 80
CCN(C(=O)c1ccc(Oc2nc(C)cc(C)n2)cc1)c1cccnc1 [I-183] | ≥ 80
CN(C)c1ccc(C(=O)Nc2cccnc2)cn1 [I-184] | ≥ 80
CN(C(=O)c1ccc(Oc2cnc(C(F)(F)F)nc2)nc1)c1cccnc1 [I-185] | ≥ 80
CCN(C(=O)c1ccc(Oc2nc(C)cc(C)n2)nc1)c1cccnc1 [I-187] | ≥ 80
COc1nc(OC)nc(Sc2ccc(C(=O)Nc3cccnc3)cc2)n1 [I-188] | ≥ 80
COc1nc(OC)nc(Sc2ccc(C(=O)N(C)c3cccnc3)cc2)n1 [I-189] | ≥ 80
CCN(C(=O)c1ccc(Sc2nc(OC)nc(OC)n2)cc1)c1cccnc1 [I-190] | ≥ 80
CCN(C(=O)c1ccc(Cl)nc1)c1cccnc1 [I-191] | ≥ 80
CCN(C(=O)c1ccc(Sc2nc(C)cc(C)n2)nc1)c1cccnc1 [I-192] | ≥ 80
CCN(C(=O)c1ccc(Oc2ccc(C)cn2)nc1)c1cccnc1 [I-193] | ≥ 80
O=C(Nc1cccnc1)c1ccc(Sc2ncccn2)nc1 [I-194] | ≥ 80
Cc1ccnc(Sc2ccc(C(=O)Nc3cccnc3)cn2)n1 [I-195] | ≥ 80
CCN(C(=O)c1ccc(Sc2ncccn2)nc1)c1cccnc1 [I-196] | ≥ 80
CCN(C(=O)c1ccc(Sc2nccc(C)n2)nc1)c1cccnc1 [I-197] | ≥ 80
COc1nc(OC)nc(Sc2ccc(C(=O)N(C)c3cccnc3)cn2)n1 [I-200] | ≥ 80
O=C(Nc1cccnc1)c1ccc(N2CCCCC2)nc1 [I-205] | ≥ 80
